According to US20250066320A1, “Active Ingredients with Sialagogue and Tingling/Fizzy Effect, and Preparations Containing Same” (Symrise AG, priority 2021, published 2025):

Assay: Sensory tasting of the active ingredients (mouth-watering and/or tingling effect) by a trained expert panel
Type: in vivo, human
Details: for Sensory Rating (profile in words): 3 to 7 tasters
Method: The sensory tasting of the active ingredients according to the invention was carried out as follows: • (1) The active ingredients were each prepared in a 5% sugar solution or in an unflavored standard fondant mass. Fondant is the name for a soft, pasty sugar mass that is used to make various confectionery products. Fondant is made from water and sucrose as well as glucose syrup, invert sugar cream and/or sugar alcohols (e.g., sorbitol or mannitol). The mixture is boiled and then processed into a soft paste by kneading it vigorously and cooling it quickly. • (2) The concentration of the active ingredients was 25 or 50 ppm. • (3) The test samples were tested under practical conditions by a panel of experts with sensory training. For tasting, 3 to 7 tasters each rinsed their mouths with approx. 5 ml of the sugar solution and spat the solution out again. The mouth-watering and/or tingling effect was assessed on a scale of 1 (very weak) to 10 (very strong) and the profile evaluated.

[1] = 25 ppm in 5% sugar solution or unflavored fondant mass
[2] = 50 ppm in 5% sugar solution or unflavored fondant mass

Compound	Sensory Rating (profile in words) [1]	Sensory Rating (profile in words) [2]	Sensory Rating: intensity of mouth-watering and/or tingling/fizzing effect (figure in brackets) (50 ppm, scale of 1 (very weak) to 10 (very strong))
CCCOc1ccc(C(=O)N2CCN(C/C=C/c3ccccc3)CC2)cc1OCCC [Compound 1, [4-[(E)-cinnamyl]pi-perazin-1-yl]-(3,4-dipropoxy-phenyl)methanone]	astringent mouth-watering, Spilanthes effect	–	–
COc1ccc(C(=O)N2CCN(C/C=C/c3ccccc3)CC2)cc1OC [Compound 3, [4-[(E)-cinnamyl]piperazin-1-yl]-(3,4-dimethoxy-phenyl)methanone]	–	tingling/ fizzing	–
COc1cc(C(=O)N2CCN(C/C=C/c3ccccc3)CC2)ccc1O [Compound 4, [4-[(E)-cinnamyl]piperazin-1-yl]-(4-hydroxy-3-methoxy-phenyl)methanone]	–	balsamic	–
COc1cc(C(=O)N2CCN(C/C=C/c3ccccc3)CC2)cc(OC)c1OC [Compound 5, [4-[(E)-cinnamyl]piperazin-1-yl]-(3,4,5-trimethoxy-phenyl)methanone]	chocolaty, dusty, after cress	–	–
CCCOc1ccc(C(=O)N2CCN(C/C=C/c3ccccc3)CC2)cc1OCCC [Compound 6, [4-[(E)-cinnamyl]piperazin-1-yl]-(3,4-dipropoxy-phenyl)methanone]	bitter, light astringent	–	–
CCOc1ccc(C(=O)N2CCN(CCCc3ccccc3)CC2)cc1OCC [Compound 7, (3,4-Diethoxy-phenyl)-[4-(3-phenyl-propyl)piperazin-1-yl]methanone]	tingling/ fizzing, mouth-watering, slightly cooling	–	–
CCOc1ccc(C(=O)N2CCN(Cc3ccccc3)CC2)cc1OCC [Compound 8, (4-benzylpiperazin-1-yl)-(3,4-diethoxy-phenyl)methanone]	slightly tingling/ fizzing, slightly mouth-watering, slightly cooling	–	–
COc1ccc(C(=O)N2CCN(C/C=C/c3ccccc3)CC2)cc1O [Compound 9, [4-[(E)-cinnamyl]piperazin-1-yl]-(3-hydroxy-4-methoxy-phenyl)methanone]	sweet, after melon	–	–
CC(C)Oc1ccc(C(=O)N2CCN(C/C=C/c3ccccc3)CC2)cc1OC(C)C [Compound 10, [4-[(E)-cinnamyl]piperazin-1-yl]-(3,4-diisopropoxy-phenyl)methanone]	astringent, bitter	–	–
CCOc1ccc(C(=O)N2CCN(CCCCc3ccccc3)CC2)cc1OCC [Compound 11, (3,4-Diethoxy-phenyl)-[4-(4-phenyl-butyl)piperazin-1-yl]methanone]	tingling/ fizzing, like melon, astringent, mouth-watering	–	–
CCOc1ccc(C(=O)N2CCN(CCc3ccncc3)CC2)cc1OCC [Compound 12, (3,4-Diethoxy-phenyl)-[4-[2-(4-pyridyl)ethyl]piperazin-1-yl] methanone]	tingling/ fizzing, mouth-watering, ethanolic	–	–
CCOc1ccc(C(=O)N2CCN(CCOc3ccccc3)CC2)cc1OCC [Compound 13, (3,4-Diethoxy-phenyl)-[4-(2-phenoxyethyl)piperazin-1-yl] methanone]	strong tingling/ fizzing, mouth-watering,	–	–
CCOc1ccc(C(=O)N2CCN(Cc3ccncc3)CC2)cc1OCC [Compound 14, (3,4-Diethoxy-phenyl)-[4-(4-pyridyl-methyl)piperazin-1-yl]methanone]	slightly tingling/ fizzing, mouth-watering, burning,	–	–
CCOc1ccc(C(=O)N2CCN(CCc3ccccc3)CC2)cc1OCC [Compound 15, (3,4-Diethoxy-phenyl)-[4-(2-phenyl-ethyl)piperazin-1-yl]methanone]	Acid effect, tingling/ fizzing, mouth-watering, slightly salty	–	–
O=C(c1ccccc1)N1CCN(CCCCc2ccccc2)CC1 [Compound 16, Phenyl-[4-(4-phenylbutyl)piperazin-1-yl]methanone]	slightly tingling/ fizzing	metallic taste, mouth-watering and tingling/ fizzing effect	2-3
